Assay results as given in patent US11124490B2, “Autotaxin inhibitors” (UNIVERSITY OF TENNESSEE RESEARCH FOUNDATION, priority 2016, dated 2021).
“And” between values parts separate entries of the source, which are not always exact repeats. Equal entries are not always repeated.

What was measured:
human recombinant ATX [1] = molecular target: T1, human recombinant ATX (Homo sapiens (Human), UniProt Q13822); assay: ATX inhibition, hydrolysis of FRET substrate FS-3; type: biochemical; details: for IC50: 1 μM FS-3, 4 nM human recombinant ATX, 1 hour time point, read-out: IC50 (nM ± SD) vs FS-3
Protocol: (§1) ATX Generation: Human recombinant ATX was expressed as published previously, using Sf9 Spodoptera frugiperda ovary cells (Invitrogen, Carlsbad, Calif.).^13 Suspension cells were grown to a 1 liter quantity at a concentration of 1×10^6 cells/ml in Sf-900 III serum-free medium (Invitrogen) supplemented with 50 U/ml penicillin and 50 μg/ml streptomycin at 27° C. with agitation. Cells were then infected with high-titer baculovirus generated via Bac-to-Bac Baculovirus Expression System (Invitrogen) using the pCMV5 mammalian expression vector containing the C-terminal FLAG-tagged human ATX sequence (a generous gift from Dr. Junken Aoko, ohoku University, Aoba-ku, Sendai, Japan) subcloned into the pFastBacl transfer vector. […] Resultant ATX was then concentrated via centrifugation in Amicon Ultra 30,000 molecular weight cut off filter units (Millipore, Billerica, Mass.) and subsequent buffer exchange into storage buffer comprised of 50 mM Tris, pH 7.4 with 20% (v/v) ethylene glycol. Protein was held at −80° C. for long-term storage.
(§2) ATX Inhibition: ATX activity was assessed via hydrolysis of the synthetic, lipid-like FRET-based substrate FS-3 (Echelon Biosciences, Salt Lake City, Utah) or via hydrolysis of the nucleotide substrate p-nitrophenyl thymidine 5′-monophosphate (pNP-TMP) as described previously.^2 Reaction wells were loaded in 60 μl volumes in triplicate wells of half-area, black-wall 96-well plates in assay buffer consisting of 50 mM Tris, 140 mM NaCl, 5 mM KCl, 1 mM CaCl2, 1 mM MgCl2, […] BSA, pH 8.0. […] Fluorescence was read every 2 minutes for 1 hour at excitation/emission wavelengths of 485/528 nm for FS-3 hydrolysis or 405 nm absorbance for pNP-TMP hydrolysis using a FlexStation 3 microplate reader (Molecular Devices, Sunnyvale, Calif.). Data (relative fluorescence or absorbance) were then recorded as a mean value of the triplicates for each sample versus time. […] In the case of mechanism determination, the linear fluorescence data from time 10 minutes to 30 minutes were then transformed using a carboxyfluorescein standard curve to determine product concentration and plotted separately. Linear trend lines were inserted using Microsoft Excel, the slope of which represent the rates of reaction for each substrate concentration. This reaction rate data for each inhibitor concentration were then plotted against substrate (FS-3) concentration and simultaneously fitted via non-linear regression in the Michaelis-Menten equations for competitive, non-competitive, uncompetitive, and mixed-mode inhibition using GraphPad Prism version 5.0a. Mechanism of inhibition was determined by which curve fit had the best global fit (R^2 value).

human recombinant ATX [2] = molecular target: T1, human recombinant ATX; assay: ATX inhibition, hydrolysis of nucleotide substrate pNP-TMP; type: biochemical; details: 1 mM pNP-TMP, 4 nM ATX, compound 0 to 1 μM
Protocol: as §1, §2

O=C(Nc1c(F)c(F)c(F)c(F)c1F)c1cc(S(=O)(=O)N2CCOCC2)c(Cl)cc1Cl [Compound 3c, 2,4-dichloro-5-(morpholinosulfonyl)-N-(perfluorophenyl)benzamide]
ATX inhibitory activity (in words) (human recombinant ATX [1]): poorly active | IC50 (human recombinant ATX [1]): 1030 nM | pNP-TMP Inhibition (human recombinant ATX [2]): None

O=C(Nc1cc(Cl)c(Cl)c(Cl)c1)c1cc(S(=O)(=O)N2CCOCC2)c(Cl)cc1Cl [Compound 3d, 2,4-dichloro-5-(morpholinosulfonyl)-N-(3,4,5-trichlorophenyl)benzamide]
ATX inhibitory activity (in words) (human recombinant ATX [1]): poorly active | IC50 (human recombinant ATX [1]): > 1000 nM | pNP-TMP Inhibition (human recombinant ATX [2]): None

COc1cc(NC(=O)c2cc(S(=O)(=O)N3CCOCC3)c(Cl)cc2Cl)cc(OC)c1OC [Compound 3e, 2,4-dichloro-5-(morpholinosulfonyl)-N-(3,4,5-trimethoxyphenyl)benzamide]
ATX inhibitory activity (in words) (human recombinant ATX [1]): poorly active | IC50 (human recombinant ATX [1]): > 1000 nM | pNP-TMP Inhibition (human recombinant ATX [2]): None

N#Cc1c(F)cc(NC(=O)c2cc(S(=O)(=O)N3CCOCC3)c(Cl)cc2Cl)cc1F [Compound 3h, 2,4-dichloro-N-(4-cyano-3,5-difluorophenyl)-5-(morpholinosulfonyl)benzamide]
IC50 (human recombinant ATX [1]): 190 ± 13.1 nM | pNP-TMP Inhibition (human recombinant ATX [2]): None

COC(=O)c1c(F)cc(NC(=O)c2cc(S(=O)(=O)N3CCOCC3)c(Cl)cc2Cl)cc1F [Compound 3i, Methyl 4-(2,4-dichloro-5-(morpholinosulfonyl)benzamido)-2,6-difluorobenzoate]
IC50 (human recombinant ATX [1]): 864 ± 51.9 nM | pNP-TMP Inhibition (human recombinant ATX [2]): None

O=C(Nc1cc(F)c(C(=O)O)c(F)c1)c1cc(S(=O)(=O)N2CCOCC2)c(Cl)cc1Cl [Compound 4, 4-(2,4-dichloro-5-(morpholinosulfonyl)benzamido)-2,6-difluorobenzoic Acid]
ATX inhibitory activity (in words) (human recombinant ATX [1]): relatively inactive | IC50 (human recombinant ATX [1]): > 1000 nM | pNP-TMP Inhibition (human recombinant ATX [2]): None

O=C(Nc1cc(F)c(F)c(F)c1Br)c1cc(S(=O)(=O)N2CCOCC2)c(Cl)cc1Cl [Compound 5, N-(2-bromo-3,4,5-trifluorophenyl)-2,4-dichloro-5-(morpholinosulfonyl)benzamide]
ATX inhibitory activity (in words) (human recombinant ATX [1]): strong ATX inhibition | fold IC50 improvement relative to screening hit 918013 (human recombinant ATX [1]): seven fold

O=S(=O)(c1cc(-c2nc3cccc(F)c3o2)c(Cl)cc1Cl)N1CCOCC1 [Compound 7, 2-(2,4-dichloro-5-(morpholinosulfonyl)phenyl)-7-fluorobenzo[d]oxazole]
ATX inhibitory activity (in words) (human recombinant ATX [1]): inactive

O=S(=O)(c1cc(-c2nc3cc(F)c(F)cc3[nH]2)c(Cl)cc1Cl)N1CCOCC1 [Compound 8, 4-((2,4-dichloro-5-(5,6-difluoro-1H-benzo[d]imidazol-2-yl)phenyl)sulfonyl)-morpholine]
ATX inhibitory activity (in words) (human recombinant ATX [1]): inactive

CN(C(=O)c1cc(S(=O)(=O)N2CCOCC2)c(Cl)cc1Cl)c1cccc(F)c1 [Compound 9, 2,4-dichloro-N-(3-fluorophenyl)-N-methyl-5-(morpholinosulfonyl)benzamide]
ATX inhibitory activity (in words) (human recombinant ATX [1]): low activity

O=S(=O)(c1cc(CNc2ccc(F)c(F)c2)c(Cl)cc1Cl)N1CCOCC1 [Compound 10, N-(2,4-dichloro-5-(morpholinosulfonyl)benzyl)-3,4-difluoroaniline]
ATX inhibitory activity (in words) (human recombinant ATX [1]): greatly deteriorated | pNP-TMP Inhibition (human recombinant ATX [2]): None

O=S(=O)(c1cc(CNc2cc(F)c(F)c(F)c2)c(Cl)cc1Cl)N1CCOCC1 [Compound 11, N-(2,4-dichloro-5-(morpholinosulfonyl)benzyl)-3,4,5-trifluoroaniline]
IC50 (human recombinant ATX [1]): 396 ± 44.1 nM | pNP-TMP Inhibition (human recombinant ATX [2]): None

O=S(=O)(c1cc(C(=S)Nc2cccc(F)c2)c(Cl)cc1Cl)N1CCOCC1 [Compound 12, 2,4-dichloro-N-(3-fluorophenyl)-5-(morpholinosulfonyl)benzothioamide]
IC50 (human recombinant ATX [1]): 121.5 ± 1.02 nM | pNP-TMP Inhibition (human recombinant ATX [2]): None

O=S(=O)(c1cc(C(=S)Nc2ccc(F)c(F)c2)c(Cl)cc1Cl)N1CCOCC1 [Compound 13, 2,4-dichloro-N-(3,4-difluorophenyl)-5-(morpholinosulfonyl)benzothioamide]
IC50 (human recombinant ATX [1]): 67.3 ± 9.73 nM | pNP-TMP Inhibition (human recombinant ATX [2]): None

O=S(=O)(c1cc(C(=S)Nc2cc(F)c(F)c(F)c2)c(Cl)cc1Cl)N1CCOCC1 [Compound 14, 2,4-dichloro-5-(morpholinosulfonyl)-N-(3,4,5-trifluorophenyl)benzothioamide]
fold IC50 improvement relative to screening hit 918013 (human recombinant ATX [1]): three fold | IC50 (human recombinant ATX [1]): 35.3 ± 2.66 nM | pNP-TMP Inhibition (human recombinant ATX [2]): None

O=S(=O)(c1cc(C(=S)Nc2cc(Cl)c(F)c(Cl)c2)c(Cl)cc1Cl)N1CCOCC1 [Compound 15, 2,4-dichloro-N-(3,5-dichloro-4-fluorophenyl)-5-(morpholinosulfonyl)-benzothioamide]
IC50 (human recombinant ATX [1]): 83.1 ± 9.77 nM | pNP-TMP Inhibition (human recombinant ATX [2]): None

O=S(=O)(Nc1cc(S(=O)(=O)N2CCOCC2)c(Cl)cc1Cl)c1cccc(F)c1 [Compound 19]
IC50 (human recombinant ATX [1]): > 1000 nM | pNP-TMP Inhibition (human recombinant ATX [2]): None

O=S(=O)(c1cc(N(S(=O)(=O)c2cccc(F)c2)S(=O)(=O)c2cccc(F)c2)c(Cl)cc1Cl)N1CCOCC1 [Compound 20]
IC50 (human recombinant ATX [1]): > 1000 nM | pNP-TMP Inhibition (human recombinant ATX [2]): None

O=S(=O)(Nc1cccc(F)c1)c1cc(S(=O)(=O)N2CCOCC2)c(Cl)cc1Cl [Compound 22, 2,4-dichloro-N-(3-fluorophenyl)-5-(morpholinosulfonyl)benzenesulfonamide]
IC50 (human recombinant ATX [1]): > 1000 nM | pNP-TMP Inhibition (human recombinant ATX [2]): None

O=S(=O)(Nc1cc(F)c(F)c(F)c1)c1cc(S(=O)(=O)N2CCOCC2)c(Cl)cc1Cl [Compound 23, 2,4-dichloro-5-(morpholinosulfonyl)-N-(3,4,5-trifluorophenyl)benzenesulfonamide]
IC50 (human recombinant ATX [1]): > 1000 nM | pNP-TMP Inhibition (human recombinant ATX [2]): None

O=C(Nc1cc(F)c(F)c(F)c1)c1cc(NN2CCOCC2)c(Cl)cc1Cl [Compound 25, 2,4-dichloro-5-(morpholinoamino)-N-(3,4,5-trifluorophenyl)benzamide]
ATX inhibitory activity (in words) (human recombinant ATX [1]): inactive | IC50 (human recombinant ATX [1]): > 1000 nM | pNP-TMP Inhibition (human recombinant ATX [2]): None

CS(=O)(=O)N(C(=O)c1cc(NN2CCOCC2)c(Cl)cc1Cl)c1cc(F)c(F)c(F)c1 [Compound 26a, 2,4-dichloro-N-(methylsulfonyl)-5-(morpholinoamino)-N-(3,4,5-trifluorophenyl)-benzamide]
ATX inhibitory activity (in words) (human recombinant ATX [1]): inactive | IC50 (human recombinant ATX [1]): > 1000 nM | pNP-TMP Inhibition (human recombinant ATX [2]): None

CN1CCN(S(=O)(=O)c2cc(C(=O)Nc3cc(F)c(F)c(F)c3)c(Cl)cc2Cl)CC1 [Compound 28a, 2,4-dichloro-5-((4-methylpiperazin-1-yl)sulfonyl)-N-(3,4,5-trifluorophenyl)-benzamide]
IC50 (human recombinant ATX [1]): 66 nM and 66.9 nM | pNP-TMP Inhibition (human recombinant ATX [2]): None

CN1CCN(S(=O)(=O)c2cc(C(=O)Nc3cc(Cl)c(F)c(Cl)c3)c(Cl)cc2Cl)CC1 [Compound 28b, 2,4-dichloro-N-(3,5-dichloro-4-fluorophenyl)-5-((4-methylpiperazin-1-yl)sulfonyl)benzamide]
IC50 (human recombinant ATX [1]): 55 nM and 55.5 nM | pNP-TMP Inhibition (human recombinant ATX [2]): None

CN1CCN(S(=O)(=O)c2cc(C(=S)Nc3cc(Cl)c(F)c(Cl)c3)c(Cl)cc2Cl)CC1 [Compound 29, 2,4-dichloro-N-(3,5-dichloro-4-fluorophenyl)-5-((4-methylpiperazin-1-yl)sulfonyl)-benzothioamide]
IC50 (human recombinant ATX [1]): 100 ± 8.11 nM | pNP-TMP Inhibition (human recombinant ATX [2]): None

O=C(Nc1cccc(F)c1)c1cc(S(=O)(=O)N2CCOCC2)c(Cl)cc1Cl [Compound 918013, 2,4-dichloro-N-(3-fluorophenyl)-5-(morpholinosulfonyl)benzamide, reference compound]
IC50 (human recombinant ATX [1]): 117 ± 1.97 nM | Mechanism (human recombinant ATX [1]; mechanism of inhibition, FS-3 0 to 10 μM, inhibitor 0, 0.5×IC50 or 2×IC50): Competitive | pNP-TMP Inhibition (human recombinant ATX [2]): None
